The source made the active and inactive calls. The calls are words filed in the database; no cut-off is given here.
What was measured:
[1] = test system: PBMC; experiment: Cytotoxicity against human PBMC at 1 to 100 uM after 48 hrs by propidium iodure labeling; assay type: cell-based
[2] = test system: PBMC; experiment: Cytotoxicity against human PBMC at 1 to 100 uM after 48 hrs by flow cytometry; assay type: cell-based
[3] = test system: PBMC; experiment: Antiinflammatory activity in human PBMC assessed as inhibition of LPS-induced IL-6 production at 100 uM after 48 hrs by ELISA; assay type: functional, cell-based
[4] = test system: PBMC; experiment: Antiinflammatory activity in human PBMC assessed as inhibition of LPS-induced TNFalpha production at 1 to 10 uM after 48 hrs by ELISA; assay type: functional, cell-based
[5] = test system: PBMC; experiment: Antiinflammatory activity in human PBMC assessed as inhibition of LPS-induced TNFalpha production at 100 uM after 48 hrs by ELISA; assay type: functional, cell-based
[6] = test system: PBMC; experiment: Antiinflammatory activity in human PBMC assessed as inhibition of LPS-induced IL-6 production at 1 to 10 uM after 48 hrs by ELISA; assay type: functional, cell-based
[7] = test system: PBMC; experiment: Antiinflammatory activity in human PBMC assessed as inhibition of LPS-induced TNFalpha production after 48 hrs by ELISA; assay type: functional, cell-based
[8] = test system: PBMC; experiment: Antiinflammatory activity in human PBMC assessed as inhibition of LPS-induced IL-6 production at 1 to 100 uM after 48 hrs by ELISA; assay type: functional, cell-based
[9] = test system: PBMC; experiment: Antiinflammatory activity in human PBMC assessed as inhibition of LPS-induced TNFalpha production at 1 to 100 uM after 48 hrs by ELISA; assay type: functional, cell-based

SMILES	Activity [1]	Activity [2]	Activity [3]	Activity [4]	Activity [5]	Activity [6]	Activity [7]	Activity [8]	Activity [9]
O=C1C2Cc3ccccc3N2C(=O)N1S(=O)(=O)c1ccc2ccccc2c1 (centres undefined)	Non-toxic	Non-toxic	–	–	–	–	–	–	–
CCOC(=O)c1ccc(S(=O)(=O)CN2C(=O)C3Cc4ccccc4CN3S2(=O)=O)cc1 (centres undefined)	Non-toxic	Non-toxic	Active	inactive	Active	inactive	–	–	–
O=C(Nc1ccccc1)c1cc2cccnc2n1S(=O)(=O)c1ccccc1	Non-toxic	Non-toxic	–	–	–	–	Dose-dependent effect	Active	–
O=C(Nc1cccc(S(=O)(=O)N2CCN(c3ccccc3)CC2)c1)c1cc2cccnc2[nH]1	Non-toxic	Non-toxic	–	–	–	–	–	inactive	inactive
Cc1ccc(S(=O)(=O)N2C(=O)c3cc4ccccc4n3C2=O)cc1	Non-toxic	Non-toxic	–	–	–	–	–	–	–
O=C(Nc1ccccc1)c1cc2cccnc2[nH]1	Non-toxic	Non-toxic	–	–	–	–	–	inactive	inactive
O=C(Nc1cccc(S(=O)(=O)N2CCSCC2)c1)c1cc2cccnc2[nH]1	Non-toxic	Non-toxic	–	–	–	–	–	inactive	inactive
O=C1c2cc3cccnc3n2C(=O)N1S(=O)(=O)c1ccccc1	Non-toxic	Non-toxic	–	–	–	–	–	inactive	Active
O=C(Nc1cccc(S(=O)(=O)N2CCOCC2)c1)c1cc2cccnc2[nH]1	Non-toxic	Non-toxic	–	–	–	–	–	inactive	inactive

Source: ChEMBL document CHEMBL1667775, “Design, synthesis and biological evaluation of new thalidomide analogues as TNF-α and IL-6 production inhibitors” (Bioorg Med Chem Lett, 2011)
